For 2 molecules, melting point results are on record in US20050265923A1, “Embolus therapy using insoluble microparticles or vesicles containing contrast agents” (priority 1997, published 2005).

For `CCOC(=O)c1c(I)c(NC(C)=O)c(I)c(NC(C)=O)c1I` [NC 8883, Ethyl 3,5-diacetamido-2,4,6-triiodobenzoate], the melting point – broadly, the temperature of the solid-liquid transition – is 280 to 290 °C (dec.). `CCOC(=O)COC(=O)c1c(I)c(NC(C)=O)c(I)c(NC(C)=O)c1I` [NC 12901, Ethyl (3,5-diacetamido-2,4,6-triiodobenzoyloxy)acetate]: the melting point is 269.5 to 270.5 °C (dec.).
